Target: Human factor D (Homo sapiens (Human), UniProt P00746)
Assay: Human Factor D Assay
Type: biochemical
Settings: Human factor D 80 nM, substrate Z-L-Lys-SBzl and DTNB 100 μM each, pH 7.5
Method: Example 14. Human Factor D Assay
Human factor D (purified from human serum, Complement Technology, Inc.) at 80 nM final concentration is incubated with test compound at various concentrations for 5 minutes at room temperature in 50 mM Tris, 1M NaCl, pH 7.5. A synthetic substrate Z-L-Lys-SBzl and DTNB (Ellman's reagent) are added to final concentrations of 100 μM each. The increase in color is recorded at OD405 nm in a microplate in kinetic mode over 30 minutes with 30 second time points in a spectrofluorimeter. IC50 values are calculated by non-linear regression from the percentage of inhibition of complement factor D activity as a function of test compound concentration.

Sequence of Human factor D (P00746 26-253): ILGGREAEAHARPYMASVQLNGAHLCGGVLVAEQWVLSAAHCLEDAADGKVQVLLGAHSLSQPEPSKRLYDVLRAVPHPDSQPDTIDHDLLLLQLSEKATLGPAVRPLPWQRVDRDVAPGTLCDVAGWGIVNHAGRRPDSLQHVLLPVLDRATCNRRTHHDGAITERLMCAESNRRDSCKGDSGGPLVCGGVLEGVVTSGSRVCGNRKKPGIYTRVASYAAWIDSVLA

SMILES	IC50 [nM]
NC(=O)c1nn(CC(=O)N2C[C@H](F)C[C@H]2C(=O)Nc2cccc(-c3ccccc3Cl)c2F)c2ccc(NC(=O)N3CCC(F)(F)C3)cc12 [Compound 30, 1-(2-((2S,4R)-2-(2′-chloro-2-fluorobiphenyl-3-ylcarbamoyl)-4-fluoropyrrolidin-1-yl)-2-oxoethyl)-5-(3,3-difluoropyrrolidine-1-carboxamido)-1H-indazole-3-carboxamide]	< 1000
CC(=O)c1cn(CC(=O)N2C[C@H](F)C[C@H]2C(=O)NCc2cccc(Cl)c2F)c2ccc(NC(=O)Nc3ccon3)cc12 [Compound 19, (2S,4R)-1-(2-(3-acetyl-5-(3-isoxazol-3-ylureido)-1H-indol-1-yl)acetyl)-N-(3-chloro-2-fluorobenzyl)-4-fluoropyrrolidine-2-carboxamide]	< 1000
CC(=O)c1cn(CC(=O)N2C[C@H](F)C[C@H]2C(=O)NCc2cccc(Cl)c2F)c2ccc(NC(=O)Nc3cncnc3)cc12 [Compound 23, (2S,4R)-1-(2-(3-acetyl-5-(3-pyrimidin-5-ylureido)-1H-indol-1-yl)acetyl)-N-(3-chloro-2-fluorobenzyl)-4-fluoropyrrolidine-2-carboxamide]	< 1000
CC(=O)c1cn(CC(=O)N2C[C@H](F)C[C@H]2C(=O)NCc2cccc(Cl)c2F)c2ccc(NC(=O)N3CCCC3)cc12 [Compound 9, N-(3-acetyl-1-(2-((2S,4R)-2-(3-chloro-2-fluorobenzylcarbamoyl)-4-fluoropyrrolidin-1-yl)-2-oxoethyl)-1H-indol-5-yl)pyrrolidine-1-carboxamide]	< 1000
CC(=O)c1cn(CC(=O)N2C[C@H](F)C[C@H]2C(=O)NCc2cccc(Cl)c2F)c2cc(C(=O)NCC3CCN(C(=O)OC(C)(C)C)C3)ccc12 (stereo partly drawn) [Compound 50]	< 1000
CC(=O)c1cn(CC(=O)N2C[C@H](F)C[C@H]2C(=O)Nc2cccc(C(F)(F)F)n2)c2ccc(NC(=O)N3CCCC(F)(F)C3)cc12 [Compound 20, N-(3-acetyl-1-(2-((2S,4R)-4-fluoro-2-(6-(trifluoromethyl)pyridin-2-ylcarbamoyl)pyrrolidin-1-yl)-2-oxoethyl)-1H-indol-5-yl)-3,3-difluoropiperidine-1-carboxamide]	< 1000
CC(=O)c1cn(CC(=O)N2C[C@H](F)C[C@H]2C(=O)NCc2cccc(Cl)c2F)c2ccc(NC(=O)N3Cc4cncnc4C3)cc12 [Compound 22, N-(3-acetyl-1-(2-((2S,4R)-2-(3-chloro-2-fluorobenzylcarbamoyl)-4-fluoropyrrolidin-1-yl)-2-oxoethyl)-1H-indol-5-yl)-5H-pyrrolo[3,4-d]pyrimidine-6(7H)-carboxamide]	< 1000
CC(=O)c1cn(CC(=O)N2[C@@H]3C[C@@H]3C[C@H]2C(=O)NCc2cccc(Cl)c2F)c2ccc(NC(=O)NC3CC3)cc12 [Compound 3, (1R,3S,5R)-2-(2-(3-acetyl-5-(3-cyclopropylureido)-1H-indol-1-yl)acetyl)-N-(3-chloro-2-fluorobenzyl)-2-azabicyclo[3.1.0]hexane-3-carboxamide]	< 1000
CC(=O)c1cn(CC(=O)N2C[C@H](F)C[C@H]2C(=O)NCc2cccc(Cl)c2F)c2cc(C(=O)N[C@H]3CCN(C(=O)OC(C)(C)C)C3)ccc12 [Compound 44, (S)-tert-butyl 3-(3-acetyl-1-(2-((2S,4R)-2-(3-chloro-2-fluorobenzylcarbamoyl)-4-fluoropyrrolidin-1-yl)-2-oxoethyl)-1H-indole-6-carboxamido) pyrrolidine-1-carboxylate]	< 1000
NC(=O)c1nn(CC(=O)N2C[C@H](F)C[C@H]2C(=O)Nc2cccc(Br)n2)c2ccc(NC(=O)N3CCCC(F)(F)C3)cc12 [Compound 33, 1-(2-((2S,4R)-2-(6-bromopyridin-2-ylcarbamoyl)-4-fluoropyrrolidin-1-yl)-2-oxoethyl)-5-(3,3-difluoropiperidine-1-carboxamido)-1H-indazole-3-carboxamide]	< 1000
CC(=O)c1cn(CC(=O)N2C[C@H](F)C[C@H]2C(=O)Nc2cccc(OC(F)(F)F)c2F)c2ccc(NC(=O)N3CCCC(F)(F)C3)cc12 [Compound 17, N-(3-acetyl-1-(2-((2S,4R)-4-fluoro-2-(2-fluoro-3-(trifluoromethoxy)phenylcarbamoyl)pyrrolidin-1-yl)-2-oxoethyl)-1H-indol-5-yl)-3,3-difluoropiperidine-1-carboxamide]	< 1000
CC(=O)c1cn(CC(=O)N2C[C@H](F)C[C@H]2C(=O)NCc2cccc(Cl)c2F)c2cc(C(=O)NS(C)(=O)=O)ccc12 [Compound 43, 3-acetyl-1-(2-((2S,4R)-2-(3-chloro-2-fluorobenzylcarbamoyl)-4-fluoropyrrolidin-1-yl)-2-oxoethyl)-N-(methylsulfonyl)-1H-indole-6-carboxamide]	< 1000
CC(=O)c1cn(CC(=O)N2C[C@H](F)C[C@H]2C(=O)NCc2cccc(Cl)c2F)c2ccc(NC(=O)OCC3CC3)cc12 [Compound 15, cyclopropylmethyl 3-acetyl-1-(2-((2S,4R)-2-(3-chloro-2-fluorobenzylcarbamoyl)-4-fluoropyrrolidin-1-yl)-2-oxoethyl)-1H-indol-5-ylcarbamate]	< 1000
NC(=O)c1nn(CC(=O)N2C[C@H](F)C[C@H]2C(=O)Nc2cccc(-c3ncccc3Cl)c2F)c2ccc(NC(=O)N3CCCC(F)(F)C3)cc12 [Compound 29, 1-(2-((2S,4R)-2-(3-(3-chloropyridin-2-yl)-2-fluorophenylcarbamoyl)-4-fluoropyrrolidin-1-yl)-2-oxoethyl)-5-(3,3-difluoropiperidine-1-carboxamido)-1H-indazole-3-carboxamide]	< 1000
CC(=O)c1cn(CC(=O)N2C[C@H](F)C[C@H]2C(=O)NCc2cccc(Cl)c2F)c2ccc(NC(=O)NCC(F)(F)F)cc12 [Compound 21, (2S,4R)-1-(2-(3-acetyl-5-(3-(2,2,2-trifluoroethyl)ureido)-1H-indol-1-yl)acetyl)-N-(3-chloro-2-fluorobenzyl)-4-fluoropyrrolidine-2-carboxamide]	< 1000
CC(=O)c1cn(CC(=O)N2C[C@H](F)C[C@H]2C(=O)NCc2cccc(Cl)c2F)c2ccc(NC(=O)NC3CC3)cc12 [Compound 1, (2S,4R)-1-(2-(3-acetyl-5-(3-cyclopropylureido)-1H-indol-1-yl)acetyl)-N-(3-chloro-2-fluorobenzyl)-4-fluoropyrrolidine-2-carboxamide]	< 1000
CC(=O)c1cn(CC(=O)N2C[C@H](F)C[C@H]2C(=O)NCc2cccc(Cl)c2F)c2ccc(C(=O)N3CCCC(F)(F)C3)cc12 [Compound 40, (2S,4R)-1-(2-(3-acetyl-5-(3,3-difluoropiperidine-1-carbonyl)-1H-indol-1-yl)acetyl)-N-(3-chloro-2-fluorobenzyl)-4-fluoropyrrolidine-2-carboxamide]	< 1000
CC(=O)c1cn(CC(=O)N2C[C@H](F)C[C@H]2C(=O)NCc2cccc(Cl)c2F)c2cc(C(=O)NCC3CCNC3)ccc12 (stereo partly drawn) [Compound 49, 3-acetyl-1-(2-((2S,4R)-2-(3-chloro-2-fluorobenzylcarbamoyl)-4-fluoropyrrolidin-1-yl)-2-oxoethyl)-N-(pyrrolidin-3-ylmethyl)-1H-indole-6-carboxamide]	< 1000
CC(=O)c1cn(CC(=O)N2C[C@H](F)C[C@H]2C(=O)NCc2cccc(Cl)c2F)c2ccc(NC(=O)NCc3nn[nH]n3)cc12 [Compound 2, (2S,4R)-1-(2-(5-(3-((2H-tetrazol-5-yl)methyl)ureido)-3-acetyl-1H-indo-1-yl)acetyl)-N-(3-chloro-2-fluorobenzyl)-4-fluoropyrrolidine-2-carboxamide]	< 1000
NC(=O)c1nn(CC(=O)N2C[C@H](F)C[C@H]2C(=O)Nc2cccc(OC(F)(F)F)c2F)c2ccc(NC(=O)Nc3ccon3)cc12 [Compound 25, 1-(2-((2S,4R)-4-fluoro-2-(2-fluoro-3-(trifluoromethoxy)phenylcarbamoyl)pyrrolidin-1-yl)-2-oxoethyl)-5-(3-isoxazol-3-ylureido)-1H-indazole-3-carboxamide]	< 1000
NC(=O)c1nn(CC(=O)N2[C@@H]3C[C@@H]3C[C@H]2C(=O)Nc2cccc(OC(F)(F)F)c2F)c2ccc(NC(=O)N3CCCC(F)(F)C3)cc12 [Compound 27, 5-(3,3-difluoropiperidine-1-carboxamido)-1-(2-((1R,3S,5R)-3-(2-fluoro-3-(trifluoromethoxy)phenylcarbamoyl)-2-azabicyclo[3.1.0]hexan-2-yl)-2-oxoethyl)-1H-indazole-3-carboxamide]	< 1000
CC(=O)c1cn(CC(=O)N2C[C@H](F)C[C@H]2C(=O)Nc2cccc(-c3ccccc3Cl)c2F)c2ccc(NC(=O)CC(F)(F)F)cc12 [Compound 36, (2S,4R)-1-(2-(3-acetyl-5-(3,3,3-trifluoropropanamido)-1H-indol-1-yl)acetyl)-N-(2′-chloro-2-fluorobiphenyl-3-yl)-4-fluoropyrrolidine-2-carboxamide]	< 1000
CC(=O)c1cn(CC(=O)N2C[C@H](F)C[C@H]2C(=O)NCc2cccc(Cl)c2F)c2ccc(C(=O)NC3CC3)cc12 [Compound 41, 3-acetyl-1-(2-((2S,4R)-2-(3-chloro-2-fluorobenzylcarbamoyl)-4-fluoropyrrolidin-1-yl)-2-oxoethyl)-N-cyclopropyl-1H-indole-5-carboxamide]	< 1000
CC(=O)c1cn(CC(=O)N2C[C@H](F)C[C@H]2C(=O)Nc2cccc(OC(F)(F)F)c2F)c2ccc(NC(=O)NC3CC3)cc12 [Compound 10, (2S,4R)-1-(2-(3-acetyl-5-(3-cyclopropylureido)-1H-indol-1-yl)acetyl)-4-fluoro-N-(2-fluoro-3-(trifluoromethoxy)phenyl) pyrrolidine-2-carboxamide]	< 1000
